{"source": "patent US10611764B2", "about": "(Wisconsin Alumni Research Foundation, priority 2017, dated 2020)", "key": {"[1]": {"molecular_target": "T1, mouse AHR (mAHR B1-allele) (Mus musculus, UniProt P30561, M589L/N533S/P471L)", "T1 sequence (P30561 10-805 P471L/N533S/M589L)": "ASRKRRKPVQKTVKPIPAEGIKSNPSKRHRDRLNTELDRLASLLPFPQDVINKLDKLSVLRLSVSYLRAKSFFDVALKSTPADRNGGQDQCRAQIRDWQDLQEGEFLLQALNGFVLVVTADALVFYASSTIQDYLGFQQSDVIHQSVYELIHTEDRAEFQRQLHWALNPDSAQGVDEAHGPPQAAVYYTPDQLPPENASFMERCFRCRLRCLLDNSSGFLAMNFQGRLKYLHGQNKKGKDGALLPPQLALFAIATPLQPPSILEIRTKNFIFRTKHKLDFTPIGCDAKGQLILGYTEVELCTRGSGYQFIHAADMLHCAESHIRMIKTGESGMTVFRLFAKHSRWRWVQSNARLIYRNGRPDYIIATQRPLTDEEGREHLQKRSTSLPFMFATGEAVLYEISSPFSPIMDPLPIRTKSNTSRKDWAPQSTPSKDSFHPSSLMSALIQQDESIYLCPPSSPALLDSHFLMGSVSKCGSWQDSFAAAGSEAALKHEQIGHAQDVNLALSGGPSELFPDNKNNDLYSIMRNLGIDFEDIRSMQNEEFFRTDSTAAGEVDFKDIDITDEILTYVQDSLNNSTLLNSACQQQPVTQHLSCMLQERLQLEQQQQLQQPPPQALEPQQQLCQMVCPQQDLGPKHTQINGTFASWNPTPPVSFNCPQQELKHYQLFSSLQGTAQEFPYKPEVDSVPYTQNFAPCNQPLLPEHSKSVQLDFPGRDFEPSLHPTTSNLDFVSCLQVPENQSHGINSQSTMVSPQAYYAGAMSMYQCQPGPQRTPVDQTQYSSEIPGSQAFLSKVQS", "assay": "cell-based", "details": "for biological response, eight-hour versus four-hour induction: 8 h vs 4 h", "description": "The wild type and mutant mAHR were cloned into the XhoI/SalI cloning sites of pTARGET (Promega, Madison, Wis.) using routine PCR and molecular cloning procedures using the pSport-mAHR plasmid (PL65) as template (Dolwick, Swanson et al. 1993). For recombinant expression of mAHR, COS-1 cells were cultured in 6 cm dishes and transfected with 2 μg of wild-type or mutant mAHR expression vector. Twenty-four hours after transfection, cells were collected, and the whole cell extracts were prepared by celLytic M reagent (Sigma-Aldrich, St Louis, Mo.). 100 μg of whole cell extract was analyzed by western blot using antibodies that specifically recognize the mAHR (bear-2) and β-actin (Sigma).\nCOS-1 cells were cultured in 96-well plates and transiently transfected with pTarget vector containing the expression cassette of wild-type or mutant mAHR, or empty vector (3 ng), together with pGudLu6.1 DREs-driven luciferase reporter vector (14 ng) (Han, Nagy et al. 2004) and TK-renilla luciferase vector (3 ng) (Invitrogen, Carlsbad Calif.). […] The expressed luciferase activity was measured by ENSPIRE plate reader (Perkin Elmer, USA). Data analysis and simulation of dose response curves were performed using GraphPad Prism 5 (GraphPad software Inc., La Jolla, Calif.). The experiments were performed in triplicate and repeated at least three times. Representative results of one repeat are shown as mean±SEM."}, "AHR": {"molecular_target": "T2, AHR (Rattus norvegicus, UniProt P41738)", "T2 sequence (P41738 10-853)": "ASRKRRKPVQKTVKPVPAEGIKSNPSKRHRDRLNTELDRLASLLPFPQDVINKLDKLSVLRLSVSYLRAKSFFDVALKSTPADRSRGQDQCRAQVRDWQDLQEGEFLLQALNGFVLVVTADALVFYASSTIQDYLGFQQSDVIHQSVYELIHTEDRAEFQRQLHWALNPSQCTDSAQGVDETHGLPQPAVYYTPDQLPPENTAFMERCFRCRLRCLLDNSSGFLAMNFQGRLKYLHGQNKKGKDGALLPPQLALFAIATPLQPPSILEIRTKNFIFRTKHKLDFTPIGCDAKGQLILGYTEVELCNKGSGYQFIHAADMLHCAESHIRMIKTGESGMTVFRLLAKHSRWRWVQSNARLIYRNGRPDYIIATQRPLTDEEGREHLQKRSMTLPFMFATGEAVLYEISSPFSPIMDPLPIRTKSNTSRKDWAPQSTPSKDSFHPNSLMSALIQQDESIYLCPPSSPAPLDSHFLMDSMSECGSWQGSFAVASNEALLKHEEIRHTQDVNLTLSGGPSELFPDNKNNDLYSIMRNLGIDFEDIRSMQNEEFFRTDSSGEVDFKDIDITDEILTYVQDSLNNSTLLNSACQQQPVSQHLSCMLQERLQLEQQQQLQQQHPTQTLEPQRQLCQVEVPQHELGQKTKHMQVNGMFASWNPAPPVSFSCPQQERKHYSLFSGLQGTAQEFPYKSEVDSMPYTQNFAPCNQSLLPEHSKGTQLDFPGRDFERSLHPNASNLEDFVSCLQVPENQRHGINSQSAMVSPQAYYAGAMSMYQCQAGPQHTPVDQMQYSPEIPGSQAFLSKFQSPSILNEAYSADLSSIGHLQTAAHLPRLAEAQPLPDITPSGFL", "details": "Rannug, Rannug et al. 1987; cited from earlier work"}, "mAHR H285A mutant": {"system": "mAHR H285A mutant", "assay": "Luciferase reporter gene assay, mutant mAHR H285A in COS-1 cells", "format": "cell-based, mouse", "details": "relative to WT mAHR"}, "MH1C1 rat hepatoma cells": {"system": "MH1C1 rat hepatoma cells", "details": "MH1C1 rat hepatoma cells exposed for three hours; cited from earlier work"}, "[2]": {"molecular_target": "T3, mAHR genetic variant A375V (D-allele) (Mus musculus, UniProt P30561, A375V/F348L/M589L/N533S/P471L)", "T3 construct": "expressed in transfected cells; host or cells: COS-1", "T3 sequence (P30561 10-805 F348L/A375V/P471L/N533S/M589L)": "T1 sequence (P30561 10-805 P471L/N533S/M589L) with F339L, A366V", "assay": "Luciferase reporter gene assay, mAHR genetic variant A375V (D-allele)", "format": "cell-based", "details": "compared with B-allele", "source_text": "Physiological relevant ligands of the AHR would be expected to activate polymorphic receptors within species and structurally variant receptors across species. As a model of this idea an important endogenous AHR ligands would be expected to activate AHR genetic variants arising from the murine Ahr B1 and D alleles. These two well-known genetic variants, harbor a key sequence variation at residue 375, with alanine in the B1 allele, and valine in the D allele (A375V). Residue 375 is located near the medial position of the AHR-LBD. […] These observations support the notion that AHR genetic variants might function through these endogenous ligands to control normal physiological functions."}, "[3]": {"system": "A375V variant of AHR (D allele)", "details": "Chang 1993, Ema 1994, Poland 1994; cited from earlier work"}, "mAHR Q377A mutant": {"molecular_target": "T4, mAHR Q377A mutant (Mus musculus, UniProt P30561, Q377A)", "T4 construct": "expressed in transfected cells; host or cells: COS-1", "T4 sequence (P30561 10-805 Q377A limits assumed)": "T1 sequence (P30561 10-805 P471L/N533S/M589L) with Q368A, L462P, S524N, L580M", "assay": "Luciferase reporter gene assay, mutant mAHR Q377A in COS-1 cells", "format": "cell-based", "details": "relative to WT mAHR"}, "[4]": {"system": "mutant AHR, F289K, F281K, I373K, and L347R", "assay": "Luciferase reporter gene assay, mAHR hydrophobic pocket mutants in COS-1 cells", "format": "cell-based, mouse"}}, "note": "Where a chain is given by its changes, count along the chain named. Like-named read-outs stand apart in the source and are kept apart here."}
{"compound": "6-formylindolo [3,2-b] carbazole [FICZ]", "values": [{"measurement": "biological response, eight-hour versus four-hour induction", "setting": "[1]; COS-1 cells", "value": "slightly reduced"}, {"measurement": "activity in the 20-hour induction", "setting": "[1]; COS-1 cells, 20 h vs 8 h and 4 h", "value": "further reduced"}, {"measurement": "EC50", "setting": "[1]; read-out: EC50 of AHR activation, COS-1 cells expressing mAHR, luciferase reporter, 4 hours", "value": 0.036, "unit": "nM"}, {"measurement": "Kd", "setting": "AHR", "value": 0.07, "unit": "nM"}, {"measurement": "effect of H285A mutation on AHR induction activity", "setting": "mAHR H285A mutant", "value": "remains partially receptive"}, {"measurement": "EC50", "setting": "MH1C1 rat hepatoma cells", "value": 0.034, "unit": "nM"}]}
{"compound": "O=c1cc[nH]c2ccccc12", "note": "[4(1H)-Quinolinone (4-HQ), 4(1H)-Quinolinone]", "values": [{"measurement": "activity in AHR induction (in words)", "setting": "[1]; known chemical derivatives of kynurenine, FIG. 10b", "value": "did not show any activity"}]}
{"compound": "c1ccc2c(c1)NC1=C3C2=NCC[C@H]3c2ccccc2N1", "note": "[274 ion fraction]", "values": [{"measurement": "AC50", "setting": "[1]", "value": "~5", "unit": "nM"}]}
{"compound": "c1ccc2c(c1)cc1ccc3cccc4ccc2c1c34", "note": "[BaP, benzo[a]pyrene]", "values": [{"measurement": "activation of the A375V D-allele", "setting": "[2]", "value": "barely stimulate"}]}
{"compound": "Clc1cc2c(cc1Cl)Oc1cc(Cl)c(Cl)cc1O2", "note": "[TCDD, 2,3,7,8-tetrachlorodibenzo-p-dioxin]", "values": [{"measurement": "binding to the A375V variant", "setting": "[3]", "value": "weakened binding"}]}
{"compound": "Nc1ccccc1C(=O)CC(N)C(=O)O", "note": "(centres unmarked) [kynurenine (3 d, 6 m)]", "values": [{"measurement": "EC50", "setting": "[1]", "value": 2.7, "unit": "nM"}]}
{"compound": "Nc1ccccc1C(=O)CC(N)C(=O)O", "note": "(centres unmarked) [kynurenine]", "values": [{"measurement": "effect of Q377A mutation on AHR induction activity", "setting": "mAHR Q377A mutant", "value": "barely affected"}, {"measurement": "effect of F289K and F281K mutations on responsiveness of AHR", "setting": "[4]; F289K, F281K", "value": "completely abolished"}, {"measurement": "effect of mutation of other hydrophobic residues to lysine or arginine on activity", "setting": "[4]; I373K, L347R, FIG. 1c", "value": "completely abolished"}, {"measurement": "fold increase of activity by incubation or long-term storage", "setting": "[1]", "value": "100-1000 fold"}, {"measurement": "biological response, eight-hour versus four-hour induction", "setting": "[1]; COS-1 cells", "value": "higher biological response"}, {"measurement": "EC50", "setting": "[1]; EC50 of AHR activation, COS-1 cells expressing mAHR, luciferase reporter, 4 hours", "value": "~13000", "unit": "nM"}, {"measurement": "fold increase of AHR induction by incubation", "setting": "[1]; after 18 days at room temperature", "value": "~100", "unit": "fold"}, {"measurement": "fold increase of AHR induction by incubation", "setting": "[1]; after three days at 37° C.", "value": "~100", "unit": "fold"}, {"measurement": "maximum activity, higher than BaP", "setting": "[1]; relative to BaP, FIG. 2A", "value": 60, "unit": "%"}, {"measurement": "maximum AHR activation, higher than that induced by FICZ", "setting": "[1]; relative to FICZ, FIG. 1A", "value": "~40", "unit": "%"}, {"measurement": "effect of H285A mutation on AHR induction activity", "setting": "mAHR H285A mutant", "value": "completely disrupts"}, {"measurement": "activation of the A375V D-allele", "setting": "[2]", "value": "readily activate"}]}
